Experimental data from ChEMBL document CHEMBL4616707, “Rationally Designed Covalent BCL6 Inhibitor That Targets a Tyrosine Residue in the Homodimer Interface” (ACS Med Chem Lett, 2020).
The source made the active and inactive calls. The calls are words filed in the database; no cut-off is given here.

How the values were obtained:
SUD4 = experiment: Antiproliferative activity against human SU-DHL4 cells assessed as growth inhibition at 6.2 uM after 5 days by Celltiter-Glo assay; type: functional, cell-based
[1] = molecular target: B-cell lymphoma 6 protein (Homo sapiens) (UniProt P41182); experiment: Binding affinity to recombinant human BCL6 (48 to 66 residues) assessed as protein compound adduct formation via Tyr58 residue after 2 hrs by LC-MS/MS analysis
[2] = molecular target: B-cell lymphoma 6 protein (Homo sapiens) (UniProt P41182); experiment: Covalent inhibition of human wild type BCL6 expressed in HEK293T cells transfected with eGFP assessed as rescue of BI-3802-induced BCL6 degradation at 5 uM incubated for 30 hrs followed by […] addition and measured after 5 hrs by flow cytometry based mCherry reporter gene analysis; type: cell-based; settings: HEK-293T

With `CNC(=O)COc1cc2cc(Nc3nc(NCc4cccc(S(C)(=O)=O)c4)ncc3Cl)cc(OC)c2n(C)c1=O` the Activity (SUD4) was “inactive”.

For `CNC(=O)COc1cc2cc(Nc3nc(NCc4cccc(S(=O)(=O)F)c4)ncc3Cl)cc(OC)c2n(C)c1=O`, the Activity (SUD4) was “Active”, the Activity [1] was “Active” and the Activity [2] was “Active”.

For `O=C1Cc2cc(Nc3nc(NCc4cccc(S(=O)(=O)F)c4)ncc3Cl)ccc2N1`, the Activity [1] was “Active” and the Activity [2] was “Active”.
